The data set can be described thus: Crystallization at room temperature by slow evaporation. As for the experimental part:
Combined with approximate solubility experiment, solubility samples were filtered by 0.45 μm nylon filter. Obtained solutions were slow evaporated at ambient condition. Solid residues were examined for their polymorphic form (Table 34).
Scale up: About 200 mg of drug substance will be dissolved in EtOAc. Obtained solutions shall be exposed to ambient condition (protected by N2) to allow slow evaporation of solvents (Table 35).

Turning to `CCC(=O)[O][Mn][O]C(=O)CC.c1cc2nc(c1)CN[C@H]1CCCC[C@@H]1NCCN[C@H]1CCCC[C@@H]1NC2` [API], the Comments entry was “API degradation, purity” (protect with N2, 1,4-Dioxane); “API degradation, purity” (protect with N2, ACN); “API degradation, purity” (protect with N2, Toluene). The purity runs as follows: (protect with N2, 1,4-Dioxane) 97.76%; (protect with N2, ACN) 98.98%; (protect with N2, Acetone) “Purity 99.39%”; (protect with N2, DCM) “Purity 99.93%”; (protect with N2, EtOAc) “Purity 99.42%”; (protect with N2, Ethanol) “Purity 99.65%”. Also, the purity entry was “Purity 99.63%” (protect with N2, IPA); “Purity 99.90%” (protect with N2, IPAC); “Purity 99.33%” (protect with N2, MEK); “Purity 99.88%” (protect with N2, MTBE); “Purity 99.92%” (protect with N2, Methanol); “Purity 99.12%” (protect with N2, THF). In addition, the purity (protect with N2, Toluene) was 96.47%.
